# Measured values reported in ChEMBL document CHEMBL1152576, “E-Combretastatin and E-resveratrol structural modifications: antimicrobial and cancer cell growth inhibitory beta-E-nitrostyrenes” (Bioorg Med Chem, 2009).
# Active and inactive are the calls of the source. The calls are words filed in the database; no cut-off is given here.
# System: DU-145
# Experiment: Cytotoxicity against human DU145 cells after 48 hrs by sulforhodamine B assay
# Type: functional
# Conditions: DU-145, 48 h
row,Compound,GI50 [µg/mL]
1,COc1cc(/C=C/[N+](=O)[O-])cc(OC)c1,1.5
2,O=[N+]([O-])/C=C/c1ccccc1O,1

# System: MCF7
# Experiment: Cytotoxicity against human MCF7 cells after 48 hrs by sulforhodamine B assay
# Type: functional
# Conditions: MCF7, 48 h
row,Compound,GI50 [µg/mL]
1,COc1cc(/C=C/[N+](=O)[O-])cc(OC)c1,1.8
2,O=[N+]([O-])/C=C/c1ccccc1O,0.47

# System: Enterococcus faecalis
# Experiment: Antimicrobial activity against Enterococcus faecalis ATCC 29212 assessed clear zone in inhibition per disk by CLSI disk diffusion susceptibility assay
# Type: functional
# Conditions: not given
row,Compound,MIC [µg]
1,COc1cc(/C=C/[N+](=O)[O-])cc(OC)c1,12.5
2,O=[N+]([O-])/C=C/c1ccccc1O,50

# System: SF-295
# Experiment: Cytotoxicity against human SF295 cells after 48 hrs by sulforhodamine B assay
# Type: functional
# Conditions: not given
row,Compound,GI50
1,COc1cc(/C=C/[N+](=O)[O-])cc(OC)c1,inactive
2,O=[N+]([O-])/C=C/c1ccccc1O,inactive

# System: Streptococcus pneumoniae
# Experiment: Antimicrobial activity against Streptococcus pneumoniae ATCC 6303 after 24 hrs by broth microdilution susceptibility assay
# Type: functional
# Conditions: ATCC 6303, 24 h
row,Compound,MBC [µg/mL]
1,COc1cc(/C=C/[N+](=O)[O-])cc(OC)c1,> 64
2,O=[N+]([O-])/C=C/c1ccccc1O,> 64

# System: P388
# Experiment: Cytotoxicity against mouse P388 cells after 48 hrs by sulforhodamine B assay
# Type: functional
# Conditions: P388, 48 h, read-out: ED50 (the source's name)
row,Compound,EC50 [µg/mL]
1,COc1cc(/C=C/[N+](=O)[O-])cc(OC)c1,0.24
2,O=[N+]([O-])/C=C/c1ccccc1O,3.5

# System: Micrococcus luteus
# Experiment: Antimicrobial activity against Micrococcus luteus Presque Isle 456 assessed clear zone in inhibition per disk by CLSI disk diffusion susceptibility assay
# Type: functional
# Conditions: not given
row,Compound,MIC [µg]
1,COc1cc(/C=C/[N+](=O)[O-])cc(OC)c1,25
2,O=[N+]([O-])/C=C/c1ccccc1O,25

# System: Candida albicans
# Experiment: Antimicrobial activity against Candida albicans ATCC 90028 assessed clear zone in inhibition per disk by CLSI disk diffusion susceptibility assay
# Type: functional
# Conditions: not given
row,Compound,MIC [µg]
1,COc1cc(/C=C/[N+](=O)[O-])cc(OC)c1,3.12
2,O=[N+]([O-])/C=C/c1ccccc1O,1.56

# System: SF-268
# Experiment: Cytotoxicity against human SF268 cells after 48 hrs by sulforhodamine B assay
# Type: functional
# Conditions: SF-268, 48 h
row,Compound,GI50 [µg/mL]
1,COc1cc(/C=C/[N+](=O)[O-])cc(OC)c1,2.3
2,O=[N+]([O-])/C=C/c1ccccc1O,1.2

# System: Neisseria gonorrhoeae
# Experiment: Antimicrobial activity against Neisseria gonorrhoeae ATCC 49226 assessed clear zone of inhibition measured per disk by CLSI disk diffusion susceptibility assay
# Type: functional
# Conditions: not given
row,Compound,MIC [µg]
1,COc1cc(/C=C/[N+](=O)[O-])cc(OC)c1,0.78
2,O=[N+]([O-])/C=C/c1ccccc1O,<0.78

# System: Streptococcus pneumoniae
# Experiment: Antimicrobial activity against Streptococcus pneumoniae ATCC 6303 assessed clear zone in inhibition per disk by CLSI disk diffusion susceptibility assay
# Type: functional
# Conditions: not given
row,Compound,MIC [µg]
1,COc1cc(/C=C/[N+](=O)[O-])cc(OC)c1,>100
2,O=[N+]([O-])/C=C/c1ccccc1O,1.56

# System: Enterobacter cloacae
# Experiment: Antimicrobial activity against Enterobacter cloacae ATCC 13047 by broth microdilution susceptibility assay
# Type: functional
# Conditions: not given
row,Compound,MIC [µg/mL]
1,COc1cc(/C=C/[N+](=O)[O-])cc(OC)c1,> 64
2,O=[N+]([O-])/C=C/c1ccccc1O,> 64

# System: BXPC-3
# Experiment: Cytotoxicity against human BxPC3 cells after 48 hrs by sulforhodamine B assay
# Type: functional
# Conditions: BXPC-3, 48 h
row,Compound,GI50 [µg/mL]
1,COc1cc(/C=C/[N+](=O)[O-])cc(OC)c1,1.6
2,O=[N+]([O-])/C=C/c1ccccc1O,1.1

# System: Neisseria gonorrhoeae
# Experiment: Antimicrobial activity against Neisseria gonorrhoeae ATCC 49226 by broth microdilution susceptibility assay
# Type: functional
# Conditions: not given
row,Compound,MIC [µg/mL]
1,COc1cc(/C=C/[N+](=O)[O-])cc(OC)c1,2
2,O=[N+]([O-])/C=C/c1ccccc1O,2

# System: Staphylococcus aureus
# Experiment: Antimicrobial activity against Staphylococcus aureus ATCC 29213 assessed clear zone in inhibition per disk by CLSI disk diffusion susceptibility assay
# Type: functional
# Conditions: not given
row,Compound,MIC [µg]
1,COc1cc(/C=C/[N+](=O)[O-])cc(OC)c1,6.25
2,O=[N+]([O-])/C=C/c1ccccc1O,25

# System: Streptococcus pneumoniae
# Experiment: Antimicrobial activity against Streptococcus pneumoniae ATCC 6303 by broth microdilution susceptibility assay
# Type: functional
# Conditions: not given
row,Compound,MIC [µg/mL]
1,COc1cc(/C=C/[N+](=O)[O-])cc(OC)c1,64
2,O=[N+]([O-])/C=C/c1ccccc1O,32

# System: Escherichia coli
# Experiment: Antimicrobial activity against Escherichia coli ATCC 25922 by broth microdilution susceptibility assay
# Type: functional
# Conditions: not given
row,Compound,MIC [µg/mL]
1,COc1cc(/C=C/[N+](=O)[O-])cc(OC)c1,> 64
2,O=[N+]([O-])/C=C/c1ccccc1O,64

# System: Candida albicans
# Experiment: Antifungal activity against Candida albicans ATCC 90028 after 48 hrs by broth microdilution susceptibility assay
# Type: functional
# Conditions: ATCC 90028, 48 h
row,Compound,MIC [µg/mL]
1,COc1cc(/C=C/[N+](=O)[O-])cc(OC)c1,16
2,O=[N+]([O-])/C=C/c1ccccc1O,16

# System: Enterococcus faecalis
# Experiment: Antimicrobial activity against Enterococcus faecalis ATCC 29212 by broth microdilution susceptibility assay
# Type: functional
# Conditions: not given
row,Compound,MIC [µg/mL]
1,COc1cc(/C=C/[N+](=O)[O-])cc(OC)c1,> 64
2,O=[N+]([O-])/C=C/c1ccccc1O,> 64

# System: Neisseria gonorrhoeae
# Experiment: Antimicrobial activity against Neisseria gonorrhoeae ATCC 49226 after 24 hrs by broth microdilution susceptibility assay
# Type: functional
# Conditions: ATCC 49226, 24 h
row,Compound,MBC [µg/mL]
1,COc1cc(/C=C/[N+](=O)[O-])cc(OC)c1,2
2,O=[N+]([O-])/C=C/c1ccccc1O,2

# System: Micrococcus luteus
# Experiment: Antimicrobial activity against Micrococcus luteus Presque Isle 456 by broth microdilution susceptibility assay
# Type: functional
# Conditions: not given
row,Compound,MIC [µg/mL]
1,COc1cc(/C=C/[N+](=O)[O-])cc(OC)c1,> 64
2,O=[N+]([O-])/C=C/c1ccccc1O,> 64

# System: Cryptococcus neoformans
# Experiment: Antifungal activity against Cryptococcus neoformans ATCC 90112 after 72 hrs by broth microdilution susceptibility assay
# Type: functional
# Conditions: ATCC 90112, 72 h
row,Compound,MIC [µg/mL]
1,COc1cc(/C=C/[N+](=O)[O-])cc(OC)c1,16
2,O=[N+]([O-])/C=C/c1ccccc1O,8

# System: Staphylococcus aureus
# Experiment: Antimicrobial activity against Staphylococcus aureus ATCC 29213 by broth microdilution susceptibility assay
# Type: functional
# Conditions: not given
row,Compound,MIC [µg/mL]
1,COc1cc(/C=C/[N+](=O)[O-])cc(OC)c1,> 64
2,O=[N+]([O-])/C=C/c1ccccc1O,> 64

# System: Stenotrophomonas maltophilia
# Experiment: Antimicrobial activity against Stenotrophomonas maltophilia ATCC 13637 assessed clear zone in inhibition per disk by CLSI disk diffusion susceptibility assay
# Type: functional
# Conditions: not given
row,Compound,MIC [µg]
1,COc1cc(/C=C/[N+](=O)[O-])cc(OC)c1,>100
2,O=[N+]([O-])/C=C/c1ccccc1O,12.5

# System: A498
# Experiment: Cytotoxicity against human A498 cells after 48 hrs by sulforhodamine B assay
# Type: functional
# Conditions: not given
row,Compound,GI50
1,COc1cc(/C=C/[N+](=O)[O-])cc(OC)c1,inactive
2,O=[N+]([O-])/C=C/c1ccccc1O,inactive

# System: not listed separately
# Experiment: Inhibition of tubulin polymerization
# Conditions: not given
row,Compound,IC50 [µM]
1,COc1cc(/C=C/[N+](=O)[O-])cc(OC)c1,3.9
2,O=[N+]([O-])/C=C/c1ccccc1O,4.4

# System: OVCAR-3
# Experiment: Cytotoxicity against human OVCAR-3 cells after 48 hrs by sulforhodamine B assay
# Type: functional
# Conditions: not given
row,Compound,GI50
1,COc1cc(/C=C/[N+](=O)[O-])cc(OC)c1,inactive
2,O=[N+]([O-])/C=C/c1ccccc1O,inactive

# System: Escherichia coli
# Experiment: Antimicrobial activity against Escherichia coli ATCC 25922 assessed clear zone in inhibition per disk by CLSI disk diffusion susceptibility assay
# Type: functional
# Conditions: not given
row,Compound,MIC [µg]
1,COc1cc(/C=C/[N+](=O)[O-])cc(OC)c1,>100
2,O=[N+]([O-])/C=C/c1ccccc1O,25

# System: Candida albicans
# Experiment: Antifungal activity against Candida albicans ATCC 90028 after 24 hrs by broth microdilution susceptibility assay
# Type: functional
# Conditions: ATCC 90028, 24 h
row,Compound,MFC [µg/mL]
1,COc1cc(/C=C/[N+](=O)[O-])cc(OC)c1,16
2,O=[N+]([O-])/C=C/c1ccccc1O,32

# System: Stenotrophomonas maltophilia
# Experiment: Antimicrobial activity against Stenotrophomonas maltophilia ATCC 13637 by broth microdilution susceptibility assay
# Type: functional
# Conditions: not given
row,Compound,MIC [µg/mL]
1,COc1cc(/C=C/[N+](=O)[O-])cc(OC)c1,> 64
2,O=[N+]([O-])/C=C/c1ccccc1O,32

# System: Cryptococcus neoformans
# Experiment: Antimicrobial activity against Cryptococcus neoformans ATCC 90112 assessed clear zone in inhibition per disk by CLSI disk diffusion susceptibility assay
# Type: functional
# Conditions: not given
row,Compound,MIC [µg]
1,COc1cc(/C=C/[N+](=O)[O-])cc(OC)c1,0.78
2,O=[N+]([O-])/C=C/c1ccccc1O,0.78

# System: Enterobacter cloacae
# Experiment: Antimicrobial activity against Enterobacter cloacae ATCC 13047 assessed clear zone in inhibition per disk by CLSI disk diffusion susceptibility assay
# Type: functional
# Conditions: not given
row,Compound,MIC [µg]
1,COc1cc(/C=C/[N+](=O)[O-])cc(OC)c1,>100
2,O=[N+]([O-])/C=C/c1ccccc1O,25

# System: SK-MEL-5
# Experiment: Cytotoxicity against human SK-MEL-5 cells after 48 hrs by sulforhodamine B assay
# Type: functional
# Conditions: not given
row,Compound,GI50
1,COc1cc(/C=C/[N+](=O)[O-])cc(OC)c1,inactive
2,O=[N+]([O-])/C=C/c1ccccc1O,inactive

# System: KM-20L2
# Experiment: Cytotoxicity against human KM20L2 cells after 48 hrs by sulforhodamine B assay
# Type: functional
# Conditions: KM-20L2, 48 h
row,Compound,GI50 [µg/mL]
1,COc1cc(/C=C/[N+](=O)[O-])cc(OC)c1,1.5
2,O=[N+]([O-])/C=C/c1ccccc1O,1.6

# System: NCI-H460
# Experiment: Cytotoxicity against human NCI-H460 cells after 48 hrs by sulforhodamine B assay
# Type: functional
# Conditions: NCI-H460, 48 h
row,Compound,GI50 [µg/mL]
1,COc1cc(/C=C/[N+](=O)[O-])cc(OC)c1,2
2,O=[N+]([O-])/C=C/c1ccccc1O,0.95

# System: Cryptococcus neoformans
# Experiment: Antifungal activity against Cryptococcus neoformans ATCC 90112 after 48 hrs by broth microdilution susceptibility assay
# Type: functional
# Conditions: ATCC 90112, 48 h
row,Compound,MFC [µg/mL]
1,COc1cc(/C=C/[N+](=O)[O-])cc(OC)c1,16
2,O=[N+]([O-])/C=C/c1ccccc1O,32
